# Read-outs that look alike come from different tables or passages of the source.
# Key:
# [1] = tested on: electroconvulsive shock (ECS) induced convulsions; test: blocking electroconvulsive shock (ECS) induced convulsions (Swinyard et al. procedures); type: in vivo
# [2] = tested on: cognitive deficits (scopolamine, MK-801); test: cognitive enhancement (Examples I and II overall); type: in vivo, mice; details: data of Examples I and II
# From the text: (§1) See, for example Dilts and Berry, J. Pharmacology and Experimental Therapeutics 58, 279-285 (1967).
# (§2) The NMDA receptor is strongly implicated in the production of long-term potentiation and subsequent memory processes (Morris, et al., Nature Vol. 319, pp 774-776 (1986)). Blockade of these sites produces amnestic effects in mice on the passive avoidance response.
# [3] = tested on: amnestic effects of MK-801; test: passive avoidance response (PAR) test, amnestic effects of MK-801; type: in vivo; details: mice
# From the text: FIG. 3 is a plot showing the mean latency time in the PAR test of felbamate and Compound I in blocking the amnestic effects of MK-801.
# FIG. 4 is a plot showing the mean latency time in the PAR test of Compound I and the corresponding monoacid-monocarbamate.
# as §2
# [4] = tested on: scopolamine induced cognitive deficit; test: passive avoidance response (PAR) test, scopolamine induced cognitive deficit; type: in vivo; details: mice, sc or po (FIGS. 1 and 2)
# Procedure: FIGS. 1 and 2 are plots showing the mean latency time in the passive avoidance response (PAR) test of Compound I and arecoline in reversing scopolamine induced cognitive deficits where Compound I is administered subcutaneously (sc) or orally (po).
# as §1
# [5] = literature statement; cited from earlier work
# [6] = tested on: amnestic effects of MK-801; details: Chiamulera et al. 1990; cited from earlier work
# [7] = tested on: scopolamine induced cognitive deficit; details: passive avoidance response test, mice; cited from earlier work
# [8] = SC, blocking ECS induced convulsions, read-out: ED50
structure (smiles),measurement,setting,value
NC(=O)N1c2ccccc2C=Cc2ccccc21 [Carbamazepine],ED50,[1]; [8],12 mg/kg
"NC(=O)OCC(CO)c1ccccc1 (stereo not drawn) [Compound I, 2-phenyl-1,3-propanediol monocarbamate]",effectiveness vs the corresponding dicarbamate and monoacid-monocarbamate compounds,[2],significantly more effective than the corresponding dicarbamate and monoacid-monocarbamate compounds
same,effectiveness in blocking ECS induced convulsions vs felbamate and other known anti-convulsants,[1]; in words,significantly less effective than felbamate and other known anti-convulsants
same,ED50,[1]; sc,173 mg/kg
same,blocking the amnestic effects of MK-801,[3],effectively blocks the amnestic effects of MK-801 in this model at low doses
same,effectiveness in blocking the effects of MK-801 vs the corresponding monoacid-monocarbamate,[3],more effective than the corresponding monoacid-monocarbamate
same,antagonism of the amnestic effects of scopolamine,[4],antagonist for the amnestic effects of scopolamine over a very wide dosage range
O=C1NC(=O)C(c2ccccc2)(c2ccccc2)N1 [Dilantin],ED50,[1]; [8],5.5 mg/kg
"NC(=O)OCC(COC(N)=O)c1ccccc1 [Felbamate, 2-phenyl-1,3-propanediol dicarbamate]",ED50,[1]; [8],42.2 mg/kg
same,blocking the amnestic effects of MK-801,[3],does not block the effect of MK-801
same,anticonvulsant effect,[5],effective anticonvulsant agent
C[C@]12N[C@H](Cc3ccccc31)c1ccccc12 [MK-801],cognitive deficits produced,[6],produces cognitive deficits
CCC1(c2ccccc2)C(=O)NC(=O)NC1=O [Phenobarbital],ED50,[1]; sc,12 mg/kg
CN1[C@@H]2C[C@@H](OC(=O)[C@H](CO)c3ccccc3)C[C@H]1[C@@H]1O[C@@H]12 [Scopolamine],amnestic effect,[7],well-known amnestic for mice in a passive avoidance response test
CCCC(CCC)C(=O)O [Valproate],ED50,[1]; sc,550 mg/kg

# — US5492930A, “Method and formulation for treating CNS disorders” (Schering Corporation, priority 1994, dated 1996)
